The nature of data set [1]: Enzymatic stability in 50% human plasma-0.01 M PBS. Type of data set: in vitro ADME. Conditions: 50% (v/v) human plasma-0.01 M PBS. How it is done: Lipophilicity was determined with the shake-flask method as a distribution coefficient between 0.01 M PBS and octanol. Purified radiotracer [^18F]6 (10 μL, ∼200 kBq, 1.5 nmol), [^18F]14 (20 μL, ∼260 kBq, 125 pmol), or [^18F]15 (20 μL, 144 kBq, 67 pmol) in a polypropylene tube containing 1500–2000 μL of each in a 1:1 mixture (1-octanol, 0.02 M PBS, pH 7.4) was shaken mechanically (500 rpm, 10 min) and centrifuged (1000g, 5 min), and samples from each layer (400 μL, n = 4) were measured with a γ-counter. The log D7.4 was calculated as a distribution between the two layers at pH 7.4. [^18F]6 (10 MBq, 40 nmol) diluted with 0.01 M PBS at pH 7.4 (≤1% ethanol, 5300 μL) was incubated for 180 min. At selected time points (5, 30, 60, 90, 120, 150, and 180 min), a sample (100 μL) was injected to radio-HPLC. [^18F]14 and [^18F]15 (29 MBq, 10 nmol) diluted in 2000 μL of 0.01 M PBS (≤1% ethanol) were left to incubate. A sample of [^18F]14 (100 μL) after 9 hours and [^18F]15 at selected time points between 30 and 335 min were injected into HPLC (method A). [^18F]15 (0.6 MBq, 0.134 nmol, 200 μL) formulated in ≤5% EtOH-1 × PBS was added and incubated in 2000 μL of PBS-50% human plasma at 37 °C. A 100 μL sample (at 60, 120, 180, and 240 min, n = 2) was diluted with 200 μL of cold acetonitrile and centrifuged (10,000g, 5 min). […]

Data set [2] has as its system SSTR2-expressing rat pancreatic adenocarcinoma AR42J cells. Kind of data set: Cell uptake assay. Conditions: 120 min; for cell uptake, baseline: n = 3, % internalized; for cell uptake, blocking: n = 3, coincubation with excess octreotide. Type of data set: cell-based. As for the experimental part: AR42J cells were grown to >90% confluence. One million cells/well were seeded overnight on 6-well plates. The growth media was removed, and the reaction media (1 mL) containing [^18F]14 (11 kBq, 10 pmol per well) or [^18F]15 (97 kBq, 40 pmol per well) was added. Additionally, cells were coincubated with 2.4 nmol per well of nonmodified octreotide for blocking of radiotracer uptake. Radioactivity in the free, membrane-bound, and internalized fractions was determined at designated time points (15, 30, 60, and 120 min) by treating the cells in a sequence of (1) ice-cold 0.01 M PBS, (2) glycine buffer, and (3) 1 M NaOH, respectively. The fractions were collected and measured with a γ-counter. The detailed protocol is given in the Supporting Information. […]
where Acoct=radioactivity concentration of octanol and AcPBS=radioactivity concentration of PBS. The datapoints were presented as mean ± standard deviation.
AR42J cell-uptake assay and mouse tumor model. Rat pancreatic tumor cell line AR42J that expresses SSTR2, was cultured at 37 °C in 95% relative humidity incubator containing 5% CO2. Cells grown to >90% confluence were used for either in vitro or in vivo experiments.
One million cells/well were seeded overnight on 6-well plates. The growth media was removed and the medium (1 mL/well) containing [18F]14 (11 kBq, 10 pmol per well) or [18F]15 (97 kBq, 40 pmol per well) was added. For studying the specificity of the cell -uptake, a set of cells were co-incubated in the presence of 2.4 nmol per well of non -modified octreotide representative of blocking conditions (total volume ~1 mL). For determining the amount of the radiotracer in the free fraction, at the designated time-points (15, 30, 60 and 120 min) the incubated media were removed, collected to a 5 mL scintillation tube, cells were washed with 1 mL of cold 0.01 M PBS (1×PBS) and again the supernatant collected into the same scintillation tube. Membrane-bound fraction; ice-cold glycine buffer (1 mL) was added on the cells, incubated for 5 minutes on ice, supernatant removed (procedure repeated once more) and the cells washed with ice -cold 1×PBS, and all washing solutions were collected to the same scintillation tube. Internalized fraction; 1 M NaOH (1 mL) was added on the cells and left incubating at an ambient temperature for 10 min. The supernatant was removed, the wells were washed 2 × 1 mL of cold 0.01 M PBS, and the supernatants collected to the same microtube. The collected samples were measured with a gamma counter for measuring the counts per minute (CPM) of each fraction (n = 3). The internalization is presented in percent (%) normalized to the total radioactivity in all three

Data set [3] can be described thus: PET/CT imaging of [18F]15. The format is in vivo, Rj:NMRI-Foxn1^nu/nu mice. The note with it: Rj:NMRI-Foxn1^nu/nu, mouse, subcutaneous AR42J tumor, iv, 0.2 nmol, total radioactivity; for SUV at 25 min: 25 min post injection; for SUV at 1.5 h: 90 min post injection. As for the experimental part: [^18F]6 in 10% ethanol–0.01 M PBS was administered intravenously to male Fox Chase SCID mice (CB.17 SCID) (11.0 ± 0.5 MBq, ∼11 nmol, ∼150 μL, n = 4) and healthy female C57BL/6JRj mice (11.3 ± 0.3 MBq, ∼11 nmol, ∼150 μL, n = 4) under 2% isoflurane anesthesia. The PET/CT image was acquired with Inveon PET/CT for 60 min followed by a 15 min static scan 4 h after injection of the tracer. The images of the dynamic scan were reconstructed to time frames 60 × 10, 10 × 60, 4 × 300, and 3 × 600 s. After the second PET imaging (t = 270 ± 1.9 min post injection, n = 4), the organs were harvested and the radioactivity in each tissue sample was measured with a γ-counter and reported as a percentage of injected dose per gram of tissue (% ID/g). [^18F]15 was formulated in 4% ethanol in 0.01 M PBS and administered intravenously (0.2 nmol, 0.80 ± 0.30 MBq; tracer: 150 μL; tracer + blocking dose: 200 μL) to AR42J tumor-bearing Rj:NMRI-Foxn1^nu/nu mice (n = 4) under 2% isoflurane anesthesia. PET/CT images were acquired with Molecubes PET (β-CUBE) coupled with a CT (X-CUBE) (MOLECUBES NV, Ghent, Belgium) with two mice being imaged at the same time under 2% isoflurane anesthesia. Images were reconstructed to time frames 30 × 10, 15 × 60, 4 × 300, and 5 × 600 s. Quantitative image analysis was done with Carimas software (v 2.10, Turku PET Centre, Turku, Finland). Spherical ROIs were hand-drawn based on anatomical CT data and PET signal for the desired organs. The results are presented as standardized uptake values (SUVs).
The standardized uptake values (SUVs) were determined from the PET image by drawing regions-of-interest (ROI) around selected organs (heart, liver, kidney, lung, muscle, urinary bladder) with Carimas software (version 2.10, Turku PET Centre, Turku, Finland ) and by measuring the ratio of radioactivity per unit volume of that ROI and normalized to the injected […]
dose. […]

Where two headings read alike, the source gives them in different places.

On to `C[C@@H](O)[C@@H]1NC(=O)[C@H](CCCCN)NC(=O)[C@@H](Cc2c[nH]c3ccccc23)NC(=O)[C@H](Cc2ccc(O)cc2)NC(=O)[C@@H](NC(=O)[C@@H](Cc2ccccc2)NC(=O)CCOCCOCCOCCOCCON=Cc2ccc(CNC(=O)OC3CCCc4cnnc(-c5ccc(CC(=O)NCC[N+](C)(C)C[B-](F)(F)F)cc5)c4CC3)cc2)CSSC[C@@H](C(=O)N[C@H](CO)[C@@H](C)O)NC1=O` (stereo partly shown) [[^18F]14], for which the “enzymatic stability (in words)” value in data set [1] (radio-HPLC) is on record as “a polar radiometabolite was detected”. In addition, in data set [2], the “cell uptake, baseline” value turned out to be 1.0 ± 0.2% and the “cell uptake, blocking” value turned out to be 0.5 ± 0.1%.

Take `C[C@@H](O)[C@@H]1NC(=O)[C@H](CCCCN)NC(=O)[C@@H](Cc2c[nH]c3ccccc23)NC(=O)[C@H](Cc2ccc(O)cc2)NC(=O)[C@@H](NC(=O)[C@@H](Cc2ccccc2)NC(=O)CCOCCOCCOCCOCCON=Cc2ccc(C(=O)NCCOCCOCCOCCNC(=O)OC3CCCc4cnnc(-c5ccc(CC(=O)NCC[N+](C)(C)C[B-](F)(F)F)cc5)c4CC3)cc2)CSSC[C@@H](C(=O)N[C@H](CO)[C@@H](C)O)NC1=O` (stereo partly shown) [[^18F]15]: the “enzymatic stability, time stable” value in data set [1] (37 °C) is reported as “at least 180 min”. For the same compound, the “cell uptake, baseline” value in data set [2] is recorded as 6.1 ± 0.6%. Moreover, in data set [2], the “cell uptake, blocking” value came to 0.7 ± 0.1%. The SUV at 25 min came to 0.76 ± 0.04 SUV in data set [3] (coadministration of octreotide, read-out: tumor SUV, blocked) and 1.01 ± 0.07 SUV in data set [3] (read-out: tumor SUV, baseline). The SUV at 1.5 h was found to be 0.76 ± 0.03 SUV in data set [3] (n = 2, coadministration of octreotide, read-out: tumor SUV, blocking) and 0.82 ± 0.14 SUV in data set [3] (n = 2, read-out: tumor SUV, baseline).

For the origin of these results see publication PMC9305971, “Development of [^18F]AmBF3 Tetrazine for Radiolabeling of Peptides: Preclinical Evaluation and PET Imaging of [^18F]AmBF3-PEG7-Tyr^3-Octreotide in an AR42J Pancreatic Carcinoma Model” (Bioconjugate Chemistry, 2022).
